Laboratory results from paper PMC6400584, “Activation mechanism of ATP-sensitive K^+ channels explored with real-time nucleotide binding” (eLife, 2019).

Experiments:
SUR1-T1397*/Kir6.2-G334D = system: T1, SUR1-T1397*/Kir6.2-G334D; assay: Current activation in inside-out patches; type: biochemical, Homo sapiens
T1 construct: confirmed that >95% of SUR1-T1397* was full length; expressed in transfected cells; host or cells: HEK-293T
Method: Currents were recorded from inside-out membrane patches excised from transfected HEK-293T cells. Pipettes were pulled to a resistance of 1–5 MΩ and filled with an extracellular solution containing (in mM) 140 KCl, 1.2 MgCl2, 2.6 CaCl2, and 10 HEPES, pH 7.4 or 140 KCl, 1 EGTA, 10 HEPES, pH 7.3. The intracellular (bath) solutions contained either (in mM) 107 KCl, 2 MgCl2, 1 CaCl2, 10 EGTA, and 10 HEPES, pH 7.2 for experiments showing nucleotide-dependent activation or 140 KCl, 1 EDTA, 1 EGTA, 10 HEPES pH 7.3 for experiments showing nucleotide-dependent inhibition. Nucleotides were added as indicated. Patches were perfused with an 8-channel µFlow perfusion system. Data were acquired at a holding potential of −60 mV using an Axopatch 200B amplifier and Digidata 1322A digitizer with pClamp 9.0 software (Molecular Devices). Currents were digitized at 10 kHz and low-pass filtered at 1 kHz. KATP channels run down in excised patches (reviewed by Proks et al.) ([Proks et al., 2016]). For inhibitory concentration-response relationships, rundown was corrected by alternating test nucleotide solutions with nucleotide-free (control) solutions and expressing the test currents as a fraction of the average of the control currents before and after the test solution. […]

[1] = biological target: SUR1-Y1353*/Kir6.2 (NBS2 of SUR1) (Homo sapiens, UniProt Q09428, Y1353X); assay: FRET binding of TNP-nucleotides to ANAP-labeled KATP in unroofed membrane fragments; conditions: 10 mM unlabeled nucleotide
Method: Unroofed membranes were prepared using a modification of a protocol from the Heuser laboratory ([Heuser, 2000]; [Usukura et al., 2012]; [Zagotta et al., 2016]). Briefly, a coverslip containing adherent cells was removed from the cell culture medium and a small piece (0.5–1 cm) was broken off using jewelers forceps (#5) and washed in phosphate buffered saline (PBS, Thermo Fisher Scientific) diluted 1:3 in deionized water. Cells were exposed 3 × 10 s to a solution of 0.01% poly-L-lysine (Sigma) with intervening washes in diluted PBS to adhere them more firmly to the coverslips. The coverslip fragment was then placed in a 30 mm culture dish filled with 2–3 mL of 1/3X PBS and sonicated very briefly (~100 ms) using a probe sonicator (Vibra-cell; Newtown, CT), leaving behind adherent plasma membrane and sometimes additional cellular material. The unroofed fragments in our experiments were sometimes visible under bright-field illumination, a potential result of our modified ‘unroofing’ procedure. Morphologically, such cell fragments resemble the ‘partially unroofed’ cells identified by Usukura et al. ([Usukura et al., 2012]) Cells cultured on poly-D-lysine coated FluoroDishes were unroofed in diluted PBS with no additional poly-L-lysine treatment. This procedure yielded a higher percentage of completely unroofed plasma membranes (i.e. nearly invisible with brightfield illumination).
Unroofed membrane fragments were imaged directly on FluoroDishes (FD35-PDL-100, World Precision Instruments) or on broken coverslips placed in a FluoroDish (FD3510, World Precision instruments) using a Nikon TE2000-U microscope equipped with a 40x (S Fluor, 1.3 NA; Nikon, Kingston Upon Thames, UK) or 100x (Apo TIRF, 1.49 NA, Nikon) oil-immersion objective and low-fluorescence immersion oil (MOIL-30, Olympus; Southend-on-Sea, UK) or a 60x water immersion objective (Plan Apo VC, 1.20 NA, Nikon). ANAP was excited using a ThorLabs LED source (LED4D067) at 385 nm connected to the microscope using a liquid light guide in series with a 390/18 nm band-pass filter (MF390-18, ThorLabs; Newton, NJ) and MD416 dichroic (ThorLabs). For imaging, emitted light was filtered through a 479/40 nm band-pass filter (MF479-40, ThorLabs). GFP-tagged constructs were imaged using a similar setup with excitation at 490 nm, a 480/40 band-pass excitation filter (Chroma; Bellows Falls, VT), a DM505 dichroic mirror (Chroma), and 510 nm long-pass emission filter (Chroma). All images were acquired using a PIXIS 400B CCD camera (Princeton Instruments; Trenton, NJ). For spectroscopy, ANAP was excited as above, but emitted light was passed through a 400 nm long-pass filter (FEL0400, ThorLabs) and directed through the slit of an Isoplane 160 spectrometer (300 g/mm grating; Princeton Instruments) in series with the camera. The acquired images retained spatial information in the y-dimension, with the x-dimension replaced by wavelength (Figure 1—figure supplement 1a). Exposure times were typically 100 ms for brightfield images, 1–10 s for steady-state spectra and 1–5 s for time-course experiments.
To prevent accumulation of fluorescent nucleotides in the bath, FluoroDishes were perfused with either (in mM) 140 KCl, 20 NaCl, 10 MgCl2, 10 HEPES pH 7.2 with NaOH or 140 KCl, 20 NaCl, 1 EDTA, 10 HEPES pH 7.2 with NaOH using a peristaltic pump (Ismatec; Wertheim, Germany). Unroofed membranes were directly perfused with nucleotides using an 8-channel µFlow perfusion system (ALA Scientific Instruments; Farmingdale, NY). Solution change with the µFlow was rapid (τ = 0.73 s±0.02 s, n=5) as measured from single exponential fits to wash-out of 50 µM tetramethylrhodamine-5-maleimide (TMRM) after switching to a solution with no TMRM. TMRM was excited with a 565 nm LED with a D540/25X band-pass filter (Chroma) and DM565 dichroic mirror (Chroma). Emitted light was collected through a D605/55M band-pass filter (Chroma). […]

Question: Which results are given for `Nc1ncnc2c1ncn2[C@@H]1O[C@H](COP(=O)([O-])OP(=O)([O-])O)[C@@H](O)[C@H]1O.[Mg+2]` [MgADP]?
Answer: EC50 (SUR1-T1397*/Kir6.2-G334D; Equation 5 fit to combined data): 38.6 µM; EC50 (SUR1-T1397*/Kir6.2-G334D; mean ± SEM of fits of equation 5 to individual experiments): 44.4 ± 14.5 µM; ANAP fluorescence intensity relative to the original peak [1]: 101 ± 2%
